Measurements reported in patent US20230286946A1, “DIFLUOROMETHYL-PYRIDIN-2-YL TRIAZOLES” (Boehringer Ingelheim International GmbH, priority 2020, published 2023).

Experiments:
[1] = target: T1, human GABAA α5β3γ2s receptor (Homo sapiens, UniProt P18507+P31644); assay: Assay A: in vitro inhibition of 3H-flumazenil binding, HEK cells expressing the human GABAA α5β3γ2s receptor; conditions: read-out: Assay A: GABAA α 5 β 3 γ 2s Ki
T1 sequence (P18507 1-475): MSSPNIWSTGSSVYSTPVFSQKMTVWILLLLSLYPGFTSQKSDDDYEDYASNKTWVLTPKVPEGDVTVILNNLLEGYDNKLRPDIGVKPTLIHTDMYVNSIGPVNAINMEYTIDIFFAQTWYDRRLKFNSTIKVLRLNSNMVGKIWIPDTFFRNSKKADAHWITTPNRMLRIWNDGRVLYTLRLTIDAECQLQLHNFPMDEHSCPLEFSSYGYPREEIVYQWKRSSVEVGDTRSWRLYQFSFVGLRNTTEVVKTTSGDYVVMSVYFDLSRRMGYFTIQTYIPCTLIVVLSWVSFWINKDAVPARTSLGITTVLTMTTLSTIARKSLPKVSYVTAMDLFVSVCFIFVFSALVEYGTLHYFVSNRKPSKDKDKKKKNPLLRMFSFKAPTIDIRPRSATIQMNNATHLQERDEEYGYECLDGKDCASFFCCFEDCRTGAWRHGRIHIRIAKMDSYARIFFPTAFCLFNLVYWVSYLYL
T1 sequence (P31644 1-462): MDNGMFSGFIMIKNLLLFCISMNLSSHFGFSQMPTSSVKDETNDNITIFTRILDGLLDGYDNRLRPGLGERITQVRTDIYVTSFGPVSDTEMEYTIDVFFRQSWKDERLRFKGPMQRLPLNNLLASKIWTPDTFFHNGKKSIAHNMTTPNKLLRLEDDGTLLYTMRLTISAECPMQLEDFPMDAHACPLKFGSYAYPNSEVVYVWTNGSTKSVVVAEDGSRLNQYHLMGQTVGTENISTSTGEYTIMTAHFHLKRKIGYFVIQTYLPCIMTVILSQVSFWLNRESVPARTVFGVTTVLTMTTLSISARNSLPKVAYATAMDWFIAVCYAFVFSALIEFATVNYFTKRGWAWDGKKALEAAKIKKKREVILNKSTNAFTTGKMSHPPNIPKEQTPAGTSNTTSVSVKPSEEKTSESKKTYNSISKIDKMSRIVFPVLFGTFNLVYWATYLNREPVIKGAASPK
Method: Cell Cultures and Membrane Preparation
HEK-293 cell lines with stable expression of recombinant human GABAA α5ß3 γ2s receptors (plasmid H46/E9/B10) are seeded in T175 polystyrene flasks or roller bottles (1700 cm^2, Fisher Scientific CCI-431191), and cultured (37° C., 5% CO2) in Dulbecco's Modified Eagle Medium (DMEM) with GlutaMAX™ supplemented with 10% fetal bovine serum and one or both of the following antibiotics: hygromycin B ([…]; γ2 subunit) or G418 (0.5 mg/ml; […]).
When the cultures reach confluency, the DMEM is removed and the cells are washed (10 ml for T175 flasks; 50 ml for roller bottles) once in Dulbecco's Phosphate Buffered Saline (DPBS). Following addition of DPBS to the cultures (10 ml for T175 flasks; 100 ml for roller bottles) for approximately 5 min cells are easily detached from the surface by shaking or tapping the flask gently. The cell suspension is transferred to Falcon tubes and centrifuged at 23,500×g for 10 min at 2° C. The pellet is washed once in 15 ml Tris-citrate buffer (50 mM, pH 7.1) using an Ultra-Turrax homogenizer and centrifuged at 2° C. for 10 min at 27,000×g. The washed pellet is re-suspended in 15 ml Tris-citrate buffer and frozen at −80° C. until the day of the binding experiment.
On the day of the experiment the cell membrane preparation is thawed and centrifuged at 2° C. for 10 min at 27,000×g. The pellet is re-suspended, using an Ultra-Turrax homogenizer in Tris-citrate buffer, to 15-50 µg protein per assay and then used for binding assays.
Non-specific binding is determined using clonazepam ([…]).
All dilutions of test compounds and incubation of assay are performed in glass vials/96-vial plates. […] Compounds are dissolved in 100% DMSO (10 mM stock), diluted in 48% ethanol-water, and tested in triplicate in serial 1:3 or 1:10 dilutions. When screening large numbers of compounds only one concentration of each compound is tested in single wells. Reference compounds are not included routinely, but for each experiment performed total and nonspecific binding is compared to data obtained during validation of the assay.
Binding is either terminated by rapid filtration onto
1) Whatman GF/C glass fibre filters using a Brandel Cell harvester, followed by 5 washes with 1 ml ice-cold buffer or onto 2) UniFilter GF/C glass fibre filter plates using a Tomtec cell harvester, followed by washing with approximately 5 ml ice-cold buffer.
The amount of radioactivity on the filters is determined by conventional liquid scintillation counting using a
1) Tri-Garb™ counter (PerkinElmer Life and Analytical Sciences) for separate large filters or
2) Topcount™ counter (PerkinElmer Life and Analytical Sciences) for 96-well filter plates.
Specific binding is total binding minus non-specific binding.
The IC50 value for a test compound is determined based on the equation: […]
where B is the binding in percentage of total specific binding; C is the concentration of test compound; and n is the Hill coefficient. For screening purposes n is set to 1. The IC50 value is calculated from the concentration response curves by the non-linear regression method using the curve-fitting program GraphPad Prism.
The Ki value for a test compound can be calculated from the IC50 value using the equation by Cheng and Prusoff: […]

[2] = Metabolic stability in human liver microsomes (Human MST); assay type: in vitro ADME; conditions: pH 7.6, pooled human liver microsomes, 37° C., read-out: Human MST t½
Method: Assessment of Metabolic Stability in Human Liver Microsomes (Human MST) The metabolic stability of the compounds according to the invention may be investigated as follows: The metabolic degradation of the test compound is assayed at 37° C. with pooled human liver microsomes. The final incubation volume of 100 μL per time point contains TRIS buffer pH 7.6 at room temperature (0.1 M), MgCl2 (5 mM), microsomal protein (1 mg/mL) and the test compound at a final concentration of 1 μM. Following a short pre-incubation period at 37° C., the reactions are initiated by addition of beta-nicotinamide adenine dinucleotide phosphate, reduced form (NADPH, 1 mM), and terminated by transferring an aliquot into solvent after different time points. After centrifugation (10000 g, 5 min), an aliquot of the supernatant is assayed by LCMS/MS for the amount of parent compound. The half-life (t1/2) is determined by the slope of the semi-logarithmic plot of the concentration-time profile.

## Cc1nnn(-c2ccc(C(F)F)cn2)c1COc1ccc(-c2cnn(C)c2C)nn1 [Example 9]
[1]
  Ki: 13 nM
[2]
  half-life at 1 μM: 1.68 h
